According to patent US7402601B2, “Pharmaceuticals for the treatment of rejection reactions in organ transplantations” (Sanofi-Aventis Deutschland GmbH, priority 1991, dated 2008):

Columns and labels:
in vivo = conditions: ip
Description: Acute Toxicity after Intraperitoneal Administration
The acute toxicity after intraperitoneal administration of the test substances was determined with NMRI mice (20 to 25 g) and SD rats (120 to 195 g). The test substance was suspended in a 1% strength sodium carboxymethyl-cellulose solution. The different dosages of the test substance were administered to the mice in a volume of 10 ml/kg of body weight and to the rats in a volume of 5 ml/kg of body weight. Per dosage, 10 animals were used. After 3 weeks, the acute toxicity was determined by the method of Litchfield and Wilcoxon.

[1] = test system: naturally occurring xenophilic antibodies (NXA); assay: Naturally occurring xenophilic antibodies (NXA) in non-sensitized rats, flow cytometry; format: in vivo; conditions: non-sensitized LEW rats, 10 mg/kg every day i.p., 11th day
Description: 2 to 3 month-old rats (LEW) are intraperitoneally (i.p.) sensitized with 2×10^7 human peripheral blood lymphocytes. The i.p. administration of compound 2 starts 4 days before sensitization and ends 10 days after sensitization of the rats. Serum samples are taken from the tail vein and stored at −80° C.; the activity of complement is avoided by heat deactivation.
The naturally occurring xenophilic antibodies (NXA) and the xenophilic antibodies induced by sensitization (SXA) are titrated and live human peripheral blood lymphocytes are added (45 min. at 20° C.). After intensive washing, FITC-labeled goat-anti-rat IgG or IgM antibodies are added and the binding to SXA or NXA is quantitatively determined by flow cytometry (FACScan, Becton Dickinson).
The serum of male LEW rats contain NXA which bind to vital human peripheral blood lymphocytes, to be precise usually with an average IgM titer of 1:4 and an average IgG titer of less than 1:1. The rats (n=8) which are treated every day with 10 mg/kg of compound 2, show a 30% reduction in their IgG titer and a 50% reduction in their IgM titer on the 11th day.

allophilic antibodies = assay: Formation of allophilic antibodies after heart transplantation (Brown-Norway to Lewis rats), complement cytotoxicity on donor spleen cells, Trypan Blue exclusion; format: in vivo
Description: The action of compound 2 on the formation of allophilic antibodies.
Male Brown-Norway rats with a weight of 200 to 250 g are used as heart donors. The hearts are transplanted into male Lewis rats of the same weight. All rats are supplied with a standard diet and water and kept in an environment with 12 hours of light and darkness.
[…] The titer of allophilic antibodies in the blood of the recipient rats is determined by incubating various dilutions of the recipient blood with spleen cells of the donor rats (Brown-Norway rats) and rabbit complement. The cytotoxicity is determined by the Trypan Blue exclusion method. The p value for the antibodies is determined using the standard t-test and compared with the untreated control animals.
Treatment with compound 2 begins on the 4th day after transplantation. 10 mg/kg of compound 2 in each case are administered i.p. once per day. The number of animals which are simultaneously treated is 5 (n=5). Treatment ends on the 17th day.

Cc1oncc1C(=O)Nc1ccc(C(F)(F)F)cc1 [Compound 1, N-(4-trifluoromethyl)-5-methylisoxazole-4-carboxanilide]
LD50 at 3 weeks (in vivo; NMRI, mouse): 185 mg/kg | LD50 at 3 weeks (in vivo; SD, rat): 170 mg/kg

C/C(O)=C(\C#N)C(=O)Nc1ccc(C(F)(F)F)cc1 [Compound 2, N-(4-trifluoromethylphenyl)-2-cyano-3-hydroxycrotonamide]
reduction in IgG titer (NXA) [1]: 30% | reduction in IgM titer (NXA) [1]: 50% | mean of the cytotoxicity values (allophilic antibodies; serum dilution 1:5, day 0 after transplantation (before treatment start on day 4), 10 mg/kg i.p. once per day): 3% | mean of the cytotoxicity values (allophilic antibodies; serum dilution 1:5, day 4 after transplantation (treatment begins), 10 mg/kg i.p. once per day): 63% | mean of the cytotoxicity values (allophilic antibodies; serum dilution 1:5, day 7 after transplantation, 10 mg/kg i.p. once per day from day 4): 36% | mean of the cytotoxicity values (allophilic antibodies; serum dilution 1:5, day 11 after transplantation, 10 mg/kg i.p. once per day from day 4): 19% | mean of the cytotoxicity values (allophilic antibodies; serum dilution 1:5, day 14 after transplantation, 10 mg/kg i.p. once per day from day 4): 22% | mean of the cytotoxicity values (allophilic antibodies; serum dilution 1:5, day 17 after transplantation, 10 mg/kg i.p. once per day from day 4): 11% | mean of the cytotoxicity values (allophilic antibodies; serum dilution 1:25, day 0 after transplantation (before treatment start on day 4), 10 mg/kg i.p. once per day): 3% | mean of the cytotoxicity values (allophilic antibodies; serum dilution 1:25, day 4 after transplantation (treatment begins), 10 mg/kg i.p. once per day): 58% | mean of the cytotoxicity values (allophilic antibodies; serum dilution 1:25, day 7 after transplantation, 10 mg/kg i.p. once per day from day 4): 31% | mean of the cytotoxicity values (allophilic antibodies; serum dilution 1:25, day 11 after transplantation, 10 mg/kg i.p. once per day from day 4): 16% | mean of the cytotoxicity values (allophilic antibodies; serum dilution 1:25, day 14 after transplantation, 10 mg/kg i.p. once per day from day 4): 11% | mean of the cytotoxicity values (allophilic antibodies; serum dilution 1:25, day 17 after transplantation, 10 mg/kg i.p. once per day from day 4): 6% | mean of the cytotoxicity values (allophilic antibodies; serum dilution 1:125, day 0 after transplantation (before treatment start on day 4), 10 mg/kg i.p. once per day): 4% | mean of the cytotoxicity values (allophilic antibodies; serum dilution 1:125, day 4 after transplantation (treatment begins), 10 mg/kg i.p. once per day): 34% | mean of the cytotoxicity values (allophilic antibodies; serum dilution 1:125, day 7 after transplantation, 10 mg/kg i.p. once per day from day 4): 20% | mean of the cytotoxicity values (allophilic antibodies; serum dilution 1:125, day 11 after transplantation, 10 mg/kg i.p. once per day from day 4): 9% | mean of the cytotoxicity values (allophilic antibodies; serum dilution 1:125, day 14 after transplantation, 10 mg/kg i.p. once per day from day 4): 6% | mean of the cytotoxicity values (allophilic antibodies; serum dilution 1:125, day 17 after transplantation, 10 mg/kg i.p. once per day from day 4): 5% | LD50 at 3 weeks (in vivo; NMRI, mouse): 150 mg/kg
